Columns and labels:
OVCAR5 cells = details: cited from earlier work
EOC (NIH:OVCAR5) tumors = details: mouse, in vivo
Procedure: Micrometastatic mouse model. An orthotopic xenograft mouse model of human ovarian carcinomatosis was established in our laboratory with gynecologic oncologists (30). Athymic Swiss female Nu/Nu mice (20-25 grams and 6-8 weeks old; Cox Breeding Laboratories) were injected intraperitoneally (i.p.) with 16×10^6 NIH:OVCAR5 (EOC) cells in 2 mL phosphate-buffered saline. All experiments were conducted according to Massachusetts General Hospital Institutional Animal Care and Use Committee (IACUC) guidelines.

| Compound | resistance relative to a platinum sensitive cell line (OVCAR5 cells) | tumor-to-bowel ratio (EOC (NIH:OVCAR5) tumors) | tumor-to-bowel ratio from fitting the pharmacokinetic data to a model (EOC (NIH:OVCAR5) tumors) |
| --- | --- | --- | --- |
| N.N.[Cl][Pt][Cl] [cisplatin] | 7 fold |  |  |
| verteporfin |  | 2.7 | 2.8 |
